{
  "source": "patent US10894051B2",
  "about": "“Method of treating metastatic cancer in a subject” (City University of Hong Kong, priority 2017, dated 2021)",
  "key": {"cancer cells": {"tested_on": "cancer cells", "assay": "cytotoxicity in vitro", "type": "cell-based"}, "[1]": {"tested_on": "mouse breast carcinoma 4TO7", "assay": "metastasis of tail vein injected 4TO7 cells", "type": "in vivo, normal BALBc mice", "details": "2.5 mg/kg daily IP; BALBc mice", "method": "To exclude the effects of immunodeficiency (nude mice) on the drug effects, another metastasis tumor model was established by tail vein injection of mouse breast carcinoma 4TO7 into normal BALBc mice followed by daily IP injections of vacuolin-1 (2.5 mg/kg) 24 hour later, as illustrated in FIG. 5A."}, "hLCSCs [2]": {"tested_on": "hLCSCs", "assay": "matrigel invasion assay", "type": "cell-based, human", "method": "(§1) HeLa cells, A549 cells, CNE-1 cells and human liver cancer stem cells (hLCSCs) were incubated and treated with vacuolin-1 at different concentrations, namely 2 μM, 5 μM and 10 μM."}, "[3]": {"assay": "acute toxicity via oral route", "type": "in vivo", "details": "single dose 250 mg/kg oral", "method": "In particular, vacuolin-1 was administered at a single dose of 250 mg/kg to young adult male and female mice via oral route, and DMSO-containing PBS was administered to another set of male and female mice via oral route as a control group. […] During the 2 weeks, the body weight was also measured. After the 2 weeks, organs were excised for histopathology evaluation.\nReferring to FIG. 8B, all tissues or organs in vacuolin-1 treated mice were normal in histological point of view as compared to control groups."}, "HeLa cells": {"tested_on": "HeLa cells", "assay": "trans-well migration assay", "type": "cell-based", "details": "2 μM, 5 μM and 10 μM", "method": "as §1"}, "CNE-1 cells": {"tested_on": "CNE-1 cells", "assay": "trans-well migration assay", "type": "cell-based", "details": "2 μM, 5 μM and 10 μM", "method": "as §1"}, "[4]": {"tested_on": "human liver cancer stem cells (hLCSCs)", "assay": "trans-well migration assay", "type": "cell-based", "details": "2 μM, 5 μM and 10 μM", "method": "as §1"}, "A549 cells": {"tested_on": "A549 cells", "assay": "trans-well migration assay", "type": "cell-based", "details": "2 μM, 5 μM and 10 μM", "method": "as §1"}, "tfLC3B-expressing LCSCs": {"tested_on": "tfLC3B-expressing LCSCs", "assay": "metastasis of tail vein injected LCSCs", "type": "in vivo", "details": "2.5 mg/kg IP 3 times per week; 8 weeks; nude mice", "method": "With reference to FIG. 3A, briefly, 5×10^5 tfLC3B-expressing LCSCs were injected via tail vein into nude mice. 24 hours after the tail vein injection, intraperitoneal (IP) injection of vacuolin-1 (2.5 mg/kg) were conducted 3 times per week. After 8 weeks, all mice were sacrificed. Lungs were excised, and fixed in the 4% paraformaldehyde in PBS. Metastatic nodules were counted in the excised lungs and hemotoxylin/eosin (H&E) were then performed."}, "hLCSCs [5]": {"tested_on": "hLCSCs", "assay": "tumor sphere formation", "type": "cell-based, human"}, "[6]": {"tested_on": "Focal adhesion kinase (FAK)", "assay": "phospho-Y397 FAK immunoblot", "type": "cell-based", "details": "phosphor-Y397 FAK immunoblot", "method": "(§2) Autophagy or endosomal trafficking contributes to the migration and invasion of tumor cells by changing the microtubule dynamics, or presentation of surface proteins, or secretion of extracellular matrix (ECM) proteins. Also, focal adhesion (FA) dynamics is a key process for cell migration. In this regard, the effects of vacuolin-1 on the spatio-temporal regulation of FA dynamics were assessed. Phospho-Y397 FAK immunoblot was used to assess the effects of vacuolin-1 on phosphorylation and dephosphorylation dynamics of FAK. Cells were also treated with nocodazole, followed by nocodazole removal and vacuolin-1 incubation, stained with antibodies against Vinculin and Phalloidiin for FA and stress fiber, respectively.\nConsistently, with reference to FIG. 1D, vacuolin-1 treatment of cells abolished phosphorylation and dephosphorylation dynamics of FAK as assessed by the phosphor-Y397 FAK immunoblot analysis."}, "LCSCs": {"tested_on": "LCSCs", "assay": "xenograft tumor-seeding of vacuolin-1 pretreated LCSCs", "type": "in vivo, nude mice", "details": "for tumor incidence / tumor volume: pretreated 10 μM 48 hours, after 4 weeks", "method": "Nude mice were divided into 4 control groups and 4 treatment groups, each group having 6 nude mice. With reference to FIG. 2A, LCSCs were pretreated with DMSO or 10 μM vacuolin-1 for 48 hours before injecting to nude mice via subcutaneous injection. After 4 weeks, the tumor incidence in mice was measured to determine whether the pretreatment of vacuolin-1 can inhibit the invasion cancer cells in mice."}, "[7]": {"tested_on": "Fluc-mCherry-expressing 4TO7 cells", "assay": "metastasis of fat pad injected Fluc-mCherry 4TO7 cells", "type": "in vivo", "details": "fat pad injection; 2.5 mg/kg IP; 4 weeks; normal female mice", "method": "The anti-metastasis effects of vacuolin-1 in another metastasis model have also been evaluated. With reference to FIG. 7A, Fluc-mCherry-expressing 4TO7 cells were injected into the fat pad of normal female mice followed by IP injections of vacuolin-1 (2.5 mg/kg) 24 hour later. The mice were imaged by the Cri Maestro 2 weekly to assess the tumor progression. Mice were sacrificed after 4 weeks, and the number of tumor colonies in lung was counted."}, "sub-chronic toxicity": {"assay": "sub-chronic toxicity", "type": "in vivo", "details": "5 mg/kg daily intraperitoneal; 3 months; mice", "method": "As for the sub-chronic toxicity of vacuolin-1, 5 mg/kg vacuolin-1 was administered daily to young adult male and female mice via intraperitoneal route for 3 months, and DMSO-containing PBS was administered to another set of male and female mice as a control group. The body weight of the mice was determined every week. […] After the 3 months, organs were excised for histopathology evaluation."}, "[8]": {"tested_on": "human breast cancer cells CA1a", "assay": "metastasis of tail vein injected CA1a cells", "type": "in vivo", "details": "2.5 mg/kg IP 3 times per week; 8 weeks; nude mice", "method": "Similarly, the anti-metastasis effects of vacuolin-1 in human breast cancer cells CA1a in xenograft mouse models were evaluated. With reference to FIG. 4A, briefly, 5×10^5 Fluc-mCherry-expressing CA1a cells were injected by tail vein into nude mice. 24 hours after the tail vein injection, IP injections of vacuolin-1 (2.5 mg/kg) and DMSO-containing PBS were conducted 3 times per week. The mice where imaged by the Cri Maestro 2 weekly to assess the tumor progression. After 8 weeks, all mice were sacrificed."}, "focal adhesion (FA)": {"tested_on": "focal adhesion (FA)", "assay": "FA disassembly after nocodazole release (Vinculin staining)", "type": "cell-based", "method": "as §2\nWith reference to FIGS. 1E and 1F, cells were treated with nocodazole so as to depolymerize microtubules for inducing and stabilizing FA formation, showing by the puncta staining pattern of Vinculin (green colour), whereas removal of nocodazole led to microtubule regrowth resulting in decreasing the number of FA in a time-dependent manner until the reformation of FAs. […] Focal adhesion kinase (FAK) phosphorylation and dephosphorylation on Y397 is another readout of FA dynamics."}, "cancer cell": {"tested_on": "cancer cell", "assay": "colony formation from single cancer cell", "type": "cell-based", "details": "2 μM, 5 μM and 10 μM", "method": "as §1"}, "[9]": {"tested_on": "Fluc-mCherry-expressing 4TO7 cells", "assay": "metastasis of tail vein injected Fluc-mCherry 4TO7 cells", "type": "in vivo", "details": "tail vein injection; 2.5 mg/kg IP; 2 weeks; normal mice", "method": "Since 4TO7 cells are more metastatic than LCSCs, Fluc-mCherry-expressing 4TO7 cells were injected into normal mice via tail vein injection followed by IP injections of vacuolin-1 (2.5 mg/kg) 24 hour later, as illustrated in FIG. 6A. The mice were imaged by the Cri Maestro 2 weekly to assess the tumor progression. Mice were sacrificed after 2 weeks, and the number of tumor colonies in lung was counted."}, "[10]": {"details": "1*10^4 LCSCs injected subcutaneously"}, "[11]": {"details": "1*10^5 LCSCs injected subcutaneously"}, "[12]": {"details": "1*10^6 LCSCs injected subcutaneously"}},
  "data": [
    {"smiles": "Ic1cccc(/C=N/Nc2nc(N3CCOCC3)nc(N(c3ccccc3)c3ccccc3)n2)c1", "note": "[vacuolin-1]", "values": [
      {"measurement": "cytotoxicity", "setting": "cancer cells", "value": "no cytotoxicity"},
      {"measurement": "anti-metastatic effects on 4TO7 cells (tumor nodules in lungs, lung histology)", "setting": "[1]", "value": "striking anti-metastatic effects"},
      {"measurement": "cell invasion", "setting": "hLCSCs [2]", "value": "significantly inhibited"},
      {"measurement": "behavior abnormality", "setting": "[3]; 2 weeks", "value": "no signs of behavior abnormality"},
      {"measurement": "mouse weight gain", "setting": "[3]; 2 weeks", "value": "no effects"},
      {"measurement": "histology of tissues or organs", "setting": "[3]; after 2 weeks", "value": "normal"},
      {"measurement": "acute toxicity", "setting": "[3]; mice", "value": "no acute toxicity"},
      {"measurement": "cell migration", "setting": "HeLa cells", "value": "significantly inhibited"},
      {"measurement": "cell migration", "setting": "CNE-1 cells", "value": "significantly inhibited"},
      {"measurement": "cell migration", "setting": "[4]", "value": "significantly inhibited"},
      {"measurement": "cell migration", "setting": "A549 cells", "value": "significantly inhibited"},
      {"measurement": "metastasis of LCSCs (tumor nodules in lung, lung histology)", "setting": "tfLC3B-expressing LCSCs", "value": "significantly inhibited"},
      {"measurement": "tumor sphere formation", "setting": "hLCSCs [5]", "value": "significantly inhibited"},
      {"measurement": "phosphorylation and dephosphorylation dynamics of FAK", "setting": "[6]", "value": "abolished"},
      {"measurement": "tumor incidence", "setting": "LCSCs; 1*10^3 LCSCs injected subcutaneously", "value": "0/6"},
      {"measurement": "tumor incidence", "setting": "LCSCs; [10]", "value": "2/6"},
      {"measurement": "tumor volume", "setting": "LCSCs; [10]", "value": "(1069 mm^3)"},
      {"measurement": "tumor incidence", "setting": "LCSCs; [11]", "value": "2/6"},
      {"measurement": "tumor volume", "setting": "LCSCs; [11]", "value": "(1184 mm^3)"},
      {"measurement": "tumor incidence", "setting": "LCSCs; [12]", "value": "5/6"},
      {"measurement": "tumor volume", "setting": "LCSCs; [12]", "value": "(1521 mm^3)"},
      {"measurement": "tumor-seeding ability of LCSC cells", "setting": "LCSCs; vacuolin-1 pretreatment, nude mice", "value": "markedly inhibited"},
      {"measurement": "metastasis of 4TO7 cells", "setting": "[7]", "value": "markedly inhibited"},
      {"measurement": "sub-chronic toxicity", "setting": "sub-chronic toxicity", "value": "no sub-chronic toxicity"},
      {"measurement": "metastasis of CA1a cells", "setting": "[8]", "value": "significantly inhibited"},
      {"measurement": "FA disassembly", "setting": "focal adhesion (FA)", "value": "markedly inhibited"},
      {"measurement": "size and number of colonies generated from single cancer cell", "setting": "cancer cell", "value": "dramatically reduced"},
      {"measurement": "metastasis of 4TO7 cells", "setting": "[9]", "value": "markedly inhibited"}
    ]}
  ]
}
